Data as given in US8895581B2, “1H-imidazo[4,5-c]quinolines” (Boehringer Ingelheim International GmbH, priority 2010, dated 2014).

Target: Recombinant human PDK1 enzyme (aa 52-556) (Homo sapiens (Human), UniProt O15530)
Assay: PDK1 kinase assay
Format: biochemical
Details: 25 μM ATP solution with gamma-P33-ATP, PDKtide substrate, 90 min at RT
Protocol: The activity of the compounds according to the invention on the kinase PDK1 which inhibits the signal transduction pathway is determined in an in vitro kinase assay with recombinantly prepared protein:
Recombinant human PDK1 enzyme (aa 52-556) linked at its N-terminal end to His6 is isolated from baculovirus-infected insect cells. Purified enzyme may be obtained for example from the University of Dundee, Scotland. The following components are combined in a well of a 96-well round-based dish (Greiner bio-one, No. 650101): • 1. 15 μL of compound to be tested in varying concentrations (e.g. starting at 10 μM, and diluted in steps of 1:5) in APT buffer (50 mM Tris/Cl pH7.5; 0.05% β-mercaptoethanol; 10 mM Mg-acetate; 0.0166% Tween 20; 3.33% DMSO) • 2. 15 μL His6-PDK1 (aa 52-556) 3.33 ng/well) and PDKtide (KTFCGTPEYLAPEVRRE […]), synthesised by Pepceuticals Limited, Nottingham, United Kingdom; 25 μM final concentration); His6-PDK1 and PDKtide are together diluted accordingly in assay buffer (50 mM tris pH 7.5, 0.05% β-mercaptoethanol, 10 mM Mg-acetate); PDKtide is present in this mixture as an 83.3 μM solution. These 30 μl are routinely incubated for 30 min at RT. • 3. 20 μL ATP solution (25 μM ATP with 1.0 μCi/well gamma-P33-ATP). The final concentration of Tween 20 is 0.005%.
The reaction is started by adding the ATP solution and the mixture is incubated for 90 min at RT. At the start of the reaction the dishes are shaken gently. The reaction is stopped by the addition of 50 μL/well of 500 mM phosphoric acid (H3PO4) and incubated for about 20 min at RT. The precipitate is transferred by harvesting onto filter plates (96-well microtitre filter plate: UniFilter GF/C; Perkin Elmer; No. 6005174), then washed 6 times with 50 mM H3PO4 and dried at 60° C. Then the plate is stuck down with sealing tape, 25 μL/well of scintillation solution (Microscint 0; Perkin Elmer; No. 6013611) are added and the amount of P33 precipitated is measured using the Wallac Betacounter. The measured data are evaluated using Graphpad Prism software.

Sequence of Recombinant human PDK1 enzyme (aa 52-556) (O15530 52-556): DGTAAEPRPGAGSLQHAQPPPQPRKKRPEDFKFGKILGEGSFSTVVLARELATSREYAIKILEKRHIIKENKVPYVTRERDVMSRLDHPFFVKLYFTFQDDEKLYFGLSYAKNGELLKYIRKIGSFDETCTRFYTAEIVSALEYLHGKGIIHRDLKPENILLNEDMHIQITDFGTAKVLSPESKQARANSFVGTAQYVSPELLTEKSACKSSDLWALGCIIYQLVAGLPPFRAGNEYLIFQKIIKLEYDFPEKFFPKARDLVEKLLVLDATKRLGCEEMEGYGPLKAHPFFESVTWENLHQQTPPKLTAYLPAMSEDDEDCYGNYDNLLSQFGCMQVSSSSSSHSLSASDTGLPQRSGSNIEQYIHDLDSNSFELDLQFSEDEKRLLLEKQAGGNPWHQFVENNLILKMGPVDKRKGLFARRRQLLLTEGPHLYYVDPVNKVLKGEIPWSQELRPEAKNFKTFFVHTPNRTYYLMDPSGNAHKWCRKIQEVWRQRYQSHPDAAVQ

IC50	Compound
20 nM	CN1CC[C@@H](n2cnc3cnc4ccc(C#CCNC(=O)c5cccn(Cc6ccc(F)c(F)c6)c5=O)cc4c32)C1 [III-15]
11 nM	CN1CC[C@H](n2cnc3cnc4ccc(C#CCNC(=O)c5cc(Cl)nn(Cc6ccc(F)c(F)c6)c5=O)cc4c32)C1 [III-16]
787 nM	CN1CCC[C@@H](n2cnc3cnc4ccc(C#CCNC(=O)c5cc(Cl)nn(Cc6ccc(F)c(F)c6)c5=O)cc4c32)C1 [III-18]
45 nM	Cc1c(C(=O)NCC#Cc2ccc3ncc4ncn(C5CCN(C(C)C)CC5)c4c3c2)c(=O)n(Cc2ccc(F)c(F)c2)n1C [III-19]
32 nM	CCN1CCC(n2cnc3cnc4ccc(C#CCNC(=O)c5c(C)n(C)n(Cc6ccc(F)c(F)c6)c5=O)cc4c32)CC1 [III-20]
5 nM	Cc1nc2cnc3ccc(C#CCNC(=O)c4c(C)n(C)n(Cc5ccc(F)c(F)c5)c4=O)cc3c2n1C1CCOCC1 [III-21]
7 nM	O=C(NCC#Cc1ccc2ncc3ncn(C4CCOC4)c3c2c1)c1cccn([C@@H](CO)c2cccc(F)c2)c1=O (stereo partly drawn) [III-22]
1 nM	Cc1nc2cnc3ccc(C#CCNC(=O)c4cccn([C@@H](C)c5ccc(F)c(F)c5)c4=O)cc3c2n1[C@H]1CC[C@H](N(C)C)CC1 [III-23]
3 nM	Cc1nc2cnc3ccc(C#CCNC(=O)c4cccn([C@@H](CO)c5cccc(F)c5)c4=O)cc3c2n1[C@H]1CC[C@H](N(C)C)CC1 [III-24]
4 nM	Cc1nc2cnc3ccc(C#CCNC(=O)c4cccn([C@@H](CO)c5cccc(F)c5)c4=O)cc3c2n1[C@H]1CC[C@@H](N(C)C)CC1 [III-25]
1 nM	CN(C)[C@H]1CC[C@H](n2cnc3cnc4ccc(C#CCNC(=O)c5cccn([C@@H](CO)c6cccc(F)c6)c5=O)cc4c32)CC1 [III-26]
3 nM	CN(C)[C@H]1CC[C@@H](n2cnc3cnc4ccc(C#CCNC(=O)c5cccn([C@@H](CO)c6cccc(F)c6)c5=O)cc4c32)CC1 [III-27]
2 nM	Cc1nc2cnc3ccc(C#CCNC(=O)c4cncn(Cc5ccc(F)c(F)c5)c4=O)cc3c2n1C1CCCOC1 (stereo not drawn) [III-28]
681 nM	NC[C@@H](c1ccccc1)n1cccc(C(=O)NCC#Cc2ccc3ncc4ncn(C5CCOC5)c4c3c2)c1=O (stereo partly drawn) [III-29]
5 nM	Cn1cnc2cnc3ccc(C#CCNC(=O)c4cncn(Cc5ccc(F)c(F)c5)c4=O)cc3c21 [III-30]
1 nM	CCn1cnc2cnc3ccc(C#CCNC(=O)c4cncn(Cc5ccc(F)c(F)c5)c4=O)cc3c21 [III-31]
2 nM	CC(C)n1cnc2cnc3ccc(C#CCNC(=O)c4cncn(Cc5ccc(F)c(F)c5)c4=O)cc3c21 [III-32]
2 nM	CCn1c(C)nc2cnc3ccc(C#CCNC(=O)c4cncn(Cc5ccc(F)c(F)c5)c4=O)cc3c21 [III-33]
8 nM	Cc1nc2cnc3ccc(C#CCNC(=O)c4cncn(Cc5ccc(F)c(F)c5)c4=O)cc3c2n1C [III-34]
5 nM	CCOc1cc(C(=O)NCC#Cc2ccc3ncc4ncn(C(C)C)c4c3c2)c(=O)n(Cc2ccc(F)c(F)c2)n1 [IV-1, 2-(3,4-difluorobenzyl)-6-ethoxy-3-oxo-2,3-dihydro-pyridazine-4-carboxylic acid [3-(1-isopropyl-1H-imidazo[4,5-c]quinolin-8-yl)-prop-2-ynyl]-amide]
33 nM	CCOc1nc2cnc3ccc(C#CCNC(=O)c4cncn(Cc5ccc(F)c(F)c5)c4=O)cc3c2n1C [V-1, 1-(3,4-difluoro-benzyl)-6-oxo-1,6-dihydro-pyrimidine-5-carboxylic acid [3-(2-ethoxy-1-methyl-1H-imidazo[4,5-c]quinolin-8-yl)-prop-2-ynyl]-amide]
72 nM	Cn1c(-c2ccccc2)nc2cnc3ccc(C#CCNC(=O)c4cncn(Cc5ccc(F)c(F)c5)c4=O)cc3c21 [V-2]
8 nM	CCc1nc2cnc3ccc(C#CCNC(=O)c4cncn(Cc5ccc(F)c(F)c5)c4=O)cc3c2n1C [V-3]
18 nM	COc1nc2cnc3ccc(C#CCNC(=O)c4cncn(Cc5ccc(F)c(F)c5)c4=O)cc3c2n1C [V-4]
24 nM	COCCc1nc2cnc3ccc(C#CCNC(=O)c4cncn(Cc5ccc(F)c(F)c5)c4=O)cc3c2n1C [V-5, 1-(3,4-difluoro-benzyl)-6-oxo-1,6-dihydro-pyrimidine-5-carboxylic acid {3-[2-(2-methoxy-ethyl)-1-methyl-1H-imidazo[4,5-c]quinolin-8-yl]-prop-2-ynyl}-amide]
19 nM	Cn1c(CF)nc2cnc3ccc(C#CCNC(=O)c4cncn(Cc5ccc(F)c(F)c5)c4=O)cc3c21 [V-6, 1-(3,4-difluoro-benzyl)-6-oxo-1,6-dihydro-pyrimidine-5-carboxylic acid [3-(2-fluoromethyl-1-methyl-1H-imidazo[4,5-c]quinolin-8-yl)-prop-2-ynyl]-amide]
41 nM	COCc1nc2cnc3ccc(C#CCNC(=O)c4cncn(Cc5ccc(F)c(F)c5)c4=O)cc3c2n1C [V-7]
79 nM	CN(C)Cc1nc2cnc3ccc(C#CCNC(=O)c4cncn(Cc5ccc(F)c(F)c5)c4=O)cc3c2n1C [V-8, 1-(3,4-difluoro-benzyl)-6-oxo-1,6-dihydro-pyrimidine-5-carboxylic acid [3-(2-dimethylaminomethyl-1-methyl-1H-imidazo[4,5-c]quinolin-8-yl)-prop-2-ynyl]-amide]
6 nM	CN(C)CCCc1nc2cnc3ccc(C#CCNC(=O)c4cncn(Cc5ccc(F)c(F)c5)c4=O)cc3c2n1C [V-9]
22 nM	CN(C)CCc1nc2cnc3ccc(C#CCNC(=O)c4cncn(Cc5ccc(F)c(F)c5)c4=O)cc3c2n1C [V-10]
